Measured values as given in patent US5883121A, “Epoxysuccinamide derivative or salt thereof, and medicine comprising the same” (Taiho Pharmaceutical Co., Ltd., priority 1995, dated 1999).
pIC50: −log10 of the molar value. Structures can show the parent of a compound that is named as a salt.

Experiments:
Assay type in all cases: biochemical
[1] = target: T1, cathepsin H (Homo sapiens, UniProt P09668); test: Determination of inhibition rate against cathepsin H; details: purified cathepsin H (Sigma Co.); substrate Arg-MCA; pH 5.5; 30° C; 10 minutes
T1 construct: purchased Sigma Co
T1 sequence (P09668 98-335): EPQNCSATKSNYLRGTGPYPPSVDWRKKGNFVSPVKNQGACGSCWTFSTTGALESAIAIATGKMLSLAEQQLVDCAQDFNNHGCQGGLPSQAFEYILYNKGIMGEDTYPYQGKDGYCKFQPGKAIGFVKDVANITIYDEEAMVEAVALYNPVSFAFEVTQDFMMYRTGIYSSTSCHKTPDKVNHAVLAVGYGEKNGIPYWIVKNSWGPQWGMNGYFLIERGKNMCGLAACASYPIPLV
Procedure: Determination of inhibition rate against cathepsin L, B and H
A purified product was purchased from Sigma Co. and used as cathepsin H, and as a substrate thereof, Arg-MCA was used.
(§1) Each cathepsin was diluted with a diluent (0.1% Brij 35) to adjust its concentration to 0.3 U (0.1 U: a concentration at which 1.0 nmol of MCA is released per minute at 37° C.). To 500 μl of this solution, were added 250 μl of an activator/buffer (340 mM sodium acetate, 60 mM acetic acid, 4 mM disodium EDTA; pH 5.5). After the mixture was incubated for 1 minute at 30° C., the sample solution of the predetermined concentration and […] of a substrate solution were added to conduct a reaction for 10 minutes.

[2] = target: T2, cathepsin L (Rattus norvegicus, UniProt P07154); test: Determination of inhibition rate against cathepsin L; details: for B/L: IC50 against cathepsin B divided by IC50 against cathepsin L; for pIC50: cathepsin L from rat liver, substrate Z-Phe-Arg-MCA, pH 5.5, 30° C, 10 minutes
T2 construct: extracted from a rat liver and completely purified; from tissue; host or cells: rat liver
T2 sequence (P07154 114-288 limits assumed): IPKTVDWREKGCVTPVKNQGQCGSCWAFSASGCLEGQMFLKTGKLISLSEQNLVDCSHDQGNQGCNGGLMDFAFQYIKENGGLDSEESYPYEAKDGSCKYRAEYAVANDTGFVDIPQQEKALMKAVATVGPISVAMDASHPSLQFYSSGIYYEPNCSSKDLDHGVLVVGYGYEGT
T2 sequence (P07154 291-334 limits assumed): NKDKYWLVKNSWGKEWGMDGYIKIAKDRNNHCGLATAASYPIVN
Procedure: (§2) Determination of inhibition rate against cathepsin L, B and H […]
as §1

[3] = target: T3, cathepsin B (Rattus norvegicus, UniProt P00787); test: Determination of inhibition rate against cathepsin B; details: cathepsin B from rat liver; substrate Z-Arg-Arg-MCA; pH 5.5; 30° C; 10 minutes
T3 construct: extracted from a rat liver and completely purified; from tissue; host or cells: rat liver
T3 sequence (P00787 129-333 limits assumed): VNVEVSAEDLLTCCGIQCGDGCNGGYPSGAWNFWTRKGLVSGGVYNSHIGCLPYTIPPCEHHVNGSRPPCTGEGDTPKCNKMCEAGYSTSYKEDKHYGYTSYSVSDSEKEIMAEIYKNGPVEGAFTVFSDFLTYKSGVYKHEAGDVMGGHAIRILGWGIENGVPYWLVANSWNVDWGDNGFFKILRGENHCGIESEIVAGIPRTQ
T3 sequence (P00787 80-126 limits assumed): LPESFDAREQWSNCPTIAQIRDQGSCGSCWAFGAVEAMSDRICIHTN
Procedure: as §2, §1

pIC50 [1]	B/L [2]	pIC50 [2]	pIC50 [3]	Compound
< 5.00	> 285	7.46	< 5.00	NCCCC[C@H](NC(=O)[C@H]1O[C@@H]1C(=O)NCCc1ccccc1)C(=O)Nc1cccc2ccccc12 [Example 2, Nα-[L-3-trans-(2-phenylethylcarbamoyl)oxirane-2-carbonyl]-L-lysine-1-naphthylamide hydrochloride]
< 5.00	> 667	7.82	< 5.00	NCCCC[C@H](NC(=O)[C@H]1O[C@@H]1C(=O)N[C@@H](Cc1ccccc1)C(N)=O)C(=O)Nc1cccc2ccccc12 [Example 14, Nα-{L-3-trans-[(S)-1-carbamoyl-2-phenylethylcarbamoyl]oxirane-2-carbonyl}-L-lysine-1-naphthylamide hydrochloride]
5.49	7500	9.40	5.52	NCCCC[C@H](NC(=O)[C@H]1O[C@@H]1C(=O)N[C@@H](Cc1ccccc1)C(=O)NCc1ccccc1)C(=O)Nc1cccc2ccccc12 [Example 26, Nα-{L-3-trans-[(S)-1-benzylcarbamoyl-2-phenylethylcarbamoyl]oxirane-2-carbonyl}-L-lysine-1-naphthylamide hydrochloride]
5.22	94.4	7.14	5.17	NCCCC[C@H](NC(=O)[C@H]1O[C@@H]1C(=O)Nc1cccc2ccccc12)C(=O)Nc1cccc2ccccc12 [Example 30, Nα-[L-3-trans-(1-naphthylcarbamoyl)oxirane-2-carbonyl]-L-lysine-1-naphthylamide hydrochloride]
	28.4	9.09	7.64	NCCCCCCCCNC(=O)[C@H](Cc1ccccc1)NC(=O)[C@H]1O[C@@H]1C(=O)O [Preparation Example 61, N-{N-[(2S,3S)-3-trans-Carboxyoxirane-2-carbonyl]-L-phenylalanyl}-1,8-diaminooctane, reference compound]

Compound	pIC50 [1]	B/L [2]	pIC50 [2]	pIC50 [3]
CC(=O)NCCCC[C@H](NC(=O)[C@H]1O[C@@H]1C(=O)N[C@@H](Cc1ccccc1)C(=O)NCCc1ccccc1)C(=O)Nc1cccc2ccccc12 [Example 32, Nα-{L-3-trans-[(S)-1-(2-phenylethylcarbamoyl)-2-phenylethylcarbamoyl]oxirane-2-carbonyl}-Nε-acetyl-L-lysine-1-naphthylamide]	5.32	17500	10.40	5.15
